From patent US20220296620A1, “AGENT FOR PREVENTING OR TREATING MILD COGNITIVE IMPAIRMENT” (NATIONAL UNIVERSITY CORPORATION TOKYO MEDICAL AND DENTAL …, priority 2019, published 2022)

Legend:
[1] = tested on: pSer46-MARCKS in brain neurons of 5×FAD mice; assay: pSer46-MARCKS levels of brain neurons by immunohistochemical staining; type: in vivo, mouse; conditions: 5×FAD mice given at 1 month of age, measured at 6 months of age, vs 5×FAD mice without administration (FIG. 16)
[2] = tested on: extracellular amyloid β in brain tissues of 5×FAD mice; assay: Extracellular amyloid β levels of brain tissues by immunohistochemical staining; type: in vivo, mouse; conditions: 5×FAD mice given at 1 month of age, measured at 6 months of age, vs 5×FAD mice without administration (FIG. 11)
Protocol: (§1) Brain tissues were excised from the test subjects or the AD mouse models and fixed in a 4% PFA (paraformaldehyde) solution. Then, 5 µm thick paraffin sections were prepared using a microtome (manufactured by Yamato Kohki Industrial Co., Ltd.). […] Fluorescence signals derived from each primary antibody were detected using a fluorescence microscope (IX70, manufactured by Olympus Corp.) or a confocal laser scanning microscope (FV1200, manufactured by Olympus Corp.) to obtain images (specifically, YAP images, phosphorylated LATS1 serine 909 (Ser909) [pLATS1] images, images of the detected DAPI fluorescence signals derived from the cells nuclei (DAPI images), and overlaid images thereof (merged images). In the DAPI images, cells having the deformed and/or shrunk cell nuclei were evaluated as necrotic cells, and the numbers of necrotic cells in 30 fields of view (143 μm×143 μm) were measured to calculate a necrotic cell number per field of view (see the ordinates of FIGS. 5A to 5C). […]

[3] = tested on: nuclear YAP in brain neurons of 5×FAD mice; assay: Amounts of nuclear YAP in brain neurons by immunohistochemical staining; type: in vivo, mouse; conditions: 5×FAD mice given at 1 month of age, measured at 6 months of age, vs 5×FAD mice without administration (FIG. 10)
Protocol: as §1

[4] = tested on: ER in brain neurons of 5×FAD mice; assay: In vivo imaging of ER volumes in brain neurons (ER-Tracker Red); set-up: species or system mouse; conditions: 5×FAD mice given at 1 month of age, measured at 6 months of age (FIGS. 13 and 15)
Protocol: The skull bones on RSD surface of normal mice (non-transgenic B6/SJL mice) or 5×FAD mice were removed using a high-speed microdrill. 1 μL of a liquid containing 100 nM amyloid-binding substance BTA1 (2-(4′-(methylamino)phenyl) benzothiazole, manufactured by Sigma-Aldrich Co. LLC) and 100 nM ER-Tracker Red (E34250, manufactured by Thermo
Fisher Scientific Inc.) was injected to RSD in the presence of 1% isoflurane (anesthetic). 4 hours later, ER-Tracker Red was imaged using an upright microscope (BX61WI, manufactured by Olympus Corp.) and a scanning laser microscope system FV1000MPE2 (manufactured by Olympus Corp.) equipped with an immersion objective lens (XLPlanN25xW, numerical aperture: 1.05) and a pulse laser (MaiTaiHP DeepSee, manufactured by Spectra-Physics, Inc.) to obtain images of detected BTA1 fluorescence signals (BTA1 images) and images of detected ER-Tracker Red fluorescence signals (ER-Tracker images). The fluorescence signal volumes of ER-Tracker Red (i.e., volumes of ER) were measured. […]

5×FAD mice = assay: Cognitive function analysis, Y-shaped maze score of alternation behavior; type: in vivo, mouse; conditions: tested at 6 months of age
Protocol: The administration of AAV-YAPΔC-ins61 or AAV-NINS (titer: 1×10^10 vector genomes/mL each, 1 μL) to mouse RSD (retrosplenial cortex) (depth of −2.0 mm from the bregma and 0.6 mm mediolaterally) and the subarachnoidal administration of S1P (40 nM, 0.15 μL/hr; manufactured by Sigma-Aldrich Co. LLC) or control artificial cerebrospinal fluid (aCSF) (0.15 μL/hr; manufactured by Alzet Osmotic Pressures) to the mice were performed according to the method described in the document “Yang, G. et al., Nat Protoc 5, 201-208 (2010)”. The administration of AAV-YAPΔC-ins61 or AAV-NINS to the mice was performed at 1 or 5 months of age. The administration of S1P to the mice was continuously performed for a period from 1 to 6 months of age or for a period from 5 to 6 months of age.
The normal mice (non-transgenic B6/SJL mice) or the 5×FAD mice given AAV-YAPΔC-ins61 or AAV-NINS, or S1P were tested for their exploratory behavior when aged 6 months using a Y-shaped maze (manufactured by O'HARA & Co., Ltd.) in which three arms of the same size were joined at […]
A value obtained by dividing the number of movements from the immediately preceding arm where the mouse stayed to an arm different from the immediately preceding arm where the mouse stayed by the number of movements in the arms was calculated as the rate of spontaneous alternation (score of alternation behavior; see FIG. 14).

CCCCCCCCCCCCC/C=C/[C@@H](O)[C@@H](N)COP(=O)(O)O [SiP, sphingosine 1-phosphate]
pSer46-MARCKS levels of brain neurons [1]: decreased to the levels of normal mice
extracellular amyloid β levels of brain tissues [2]: lower
amounts of nuclear YAP in brain neurons [3]: increased and/or restored to the levels of normal mice
ER dilation and instability in brain neurons [4]: significantly resolved ER dilation and instability
cognitive functions (score of alternation behavior, Y-shaped maze) (5×FAD mice; 5×FAD mice given at 1 month of age, vs 5×FAD mice without administration (FIGS. 17A and 17B)): equivalent to the ones of normal mice
cognitive functions (score of alternation behavior, Y-shaped maze) (5×FAD mice; 5×FAD mice given at 5 months of age, vs 5×FAD mice without administration (FIGS. 17C and 17D)): equivalent to the ones of normal mice
